According to ChEMBL document CHEMBL4385656, “Ciprofloxacin-1,2,3-triazole-isatin hybrids tethered via amide: Design, synthesis, and in vitro anti-mycobacterial activity evaluation” (Bioorg Med Chem Lett, 2019):
In brackets after ≈: the same amount, converted by molar mass.

What was measured:
[1] = system: Mycobacterium tuberculosis; experiment: Anti-mycobacterial activity against Mycobacterium tuberculosis H37Rv; assay type: functional
[2] = Cytotoxicity in African green monkey Vero cells; assay type: cell-based; settings: chlorocebus sabaeus
[3] = Selectivity index, ratio of CC50 for cytotoxicity in African green monkey Vero cells to MIC for anti-mycobacterial activity against Mycobacterium tuberculosis H37Rv; assay type: toxicity, cell-based; settings: read-out: Selectivity Index
[4] = system: Mycobacterium tuberculosis; experiment: Potency index, ratio of MIC for ciprofloxacin to MIC for test compound for anti-mycobacterial activity against Mycobacterium tuberculosis H37Rv; assay type: functional

Row | SMILES | MIC [1] | CC50 [2] | selectivity ratio [3] | Ratio [4]
1 | O=C1C(=O)N(Cc2cn(CC(=O)N3CCN(c4cc5c(cc4F)c(=O)c(C(=O)O)cn5C4CC4)CC3)nn2)c2ccccc21 | 0.5 µg/mL (≈ 0.834 µM) | 16 µg/mL (≈ 26.7 µM) | 32 | 2
2 | CO/N=C1/C(=O)N(Cc2cn(CC(=O)N3CCN(c4cc5c(cc4F)c(=O)c(C(=O)O)cn5C4CC4)CC3)nn2)c2c(F)cccc21 | 32 µg/mL (≈ 49.5 µM) | 32 µg/mL (≈ 49.5 µM) | 1 | 
3 | CCO/N=C1/C(=O)N(Cc2cn(CC(=O)N3CCN(c4cc5c(cc4F)c(=O)c(C(=O)O)cn5C4CC4)CC3)nn2)c2ccc(C)cc21 | 32 µg/mL (≈ 48.7 µM) | 32 µg/mL (≈ 48.7 µM) | 1 | 
4 | O=C1C(=O)N(Cc2cn(CC(=O)N3CCN(c4cc5c(cc4F)c(=O)c(C(=O)O)cn5C4CC4)CC3)nn2)c2c(F)cccc21 | 4 µg/mL (≈ 6.48 µM) | 8 µg/mL (≈ 13 µM) | 2 | 
5 | CCO/N=C1/C(=O)N(Cc2cn(CC(=O)N3CCN(c4cc5c(cc4F)c(=O)c(C(=O)O)cn5C4CC4)CC3)nn2)c2ccc(F)cc21 | 16 µg/mL (≈ 24.2 µM) | 8 µg/mL (≈ 12.1 µM) | 0.5 | 
6 | CCO/N=C1/C(=O)N(Cc2cn(CC(=O)N3CCN(c4cc5c(cc4F)c(=O)c(C(=O)O)cn5C4CC4)CC3)nn2)c2ccccc21 | 32 µg/mL (≈ 49.8 µM) | 64 µg/mL (≈ 99.6 µM) | 2 | 
7 | CO/N=C1/C(=O)N(Cc2cn(CC(=O)N3CCN(c4cc5c(cc4F)c(=O)c(C(=O)O)cn5C4CC4)CC3)nn2)c2ccc(F)cc21 | 8 µg/mL (≈ 12.4 µM) | 64 µg/mL (≈ 99 µM) | 8 | 
8 | CO/N=C1/C(=O)N(Cc2cn(CC(=O)N3CCN(c4cc5c(cc4F)c(=O)c(C(=O)O)cn5C4CC4)CC3)nn2)c2ccccc21 | 8 µg/mL (≈ 12.7 µM) | 128 µg/mL (≈ 204 µM) | 16 | 
9 | O=C1C(=O)N(Cc2cn(CC(=O)N3CCN(c4cc5c(cc4F)c(=O)c(C(=O)O)cn5C4CC4)CC3)nn2)c2ccc(F)cc21 | 1 µg/mL (≈ 1.62 µM) | 32 µg/mL (≈ 51.8 µM) | 32 | 
10 | CO/N=C1/C(=O)N(Cc2cn(CC(=O)N3CCN(c4cc5c(cc4F)c(=O)c(C(=O)O)cn5C4CC4)CC3)nn2)c2ccc(C)cc21 | 32 µg/mL (≈ 49.8 µM) | 8 µg/mL (≈ 12.4 µM) | 0.25 | 
11 | Cc1ccc2c(c1)C(=O)C(=O)N2Cc1cn(CC(=O)N2CCN(c3cc4c(cc3F)c(=O)c(C(=O)O)cn4C3CC3)CC2)nn1 | 1 µg/mL (≈ 1.63 µM) | 16 µg/mL (≈ 26.1 µM) | 16 | 
12 | CCO/N=C1/C(=O)N(Cc2cn(CC(=O)N3CCN(c4cc5c(cc4F)c(=O)c(C(=O)O)cn5C4CC4)CC3)nn2)c2c(F)cccc21 | 32 µg/mL (≈ 48.4 µM) | 16 µg/mL (≈ 24.2 µM) | 0.5 | 
13 | O=C(O)c1cn(C2CC2)c2cc(N3CCNCC3)c(F)cc2c1=O [CIPROFLOXACIN] | 1 µg/mL (≈ 3.02 µM) |  | 128 | 
14 | NNC(=O)c1ccncc1 [ISONIAZID] | 0.12 µg/mL (≈ 0.875 µM) | 64 µg/mL (≈ 467 µM) | 512 | 
15 | CO[C@H]1/C=C/O[C@@]2(C)Oc3c(C)c(O)c4c(O)c(c(/C=N/N5CCN(C)CC5)c(O)c4c3C2=O)NC(=O)/C(C)=C\C=C\[C@H](C)[C@H](O)[C@@H](C)[C@@H](O)[C@@H](C)[C@H](OC(C)=O)[C@@H]1C [RIFAMPIN] | 0.25 µg/mL (≈ 0.304 µM) | 128 µg/mL (≈ 156 µM) | 512 | 
